Experimental data as given in patent publication US20130338152A1, “FLUOROPHENYL BICYCLIC HETEROARYL COMPOUNDS” (IRM LLC, priority 2011, published 2013).
pIC50: −log10 of the molar value. Read-outs that look alike come from different tables or passages of the source.

Assays:
IGF1R [1] = biological target: T1, IGF1R (Homo sapiens, UniProt P08069); assay: Cellular IGF-1R assay: inhibition of IGF1R phosphorylation in Hek293 cells, capture ELISA (MSD); assay type: cell-based; design: expressed in transfected cells; host or cells: Hek293 (Hek293-IGF1R); settings: IGF-triggered receptor phosphorylation
T1 sequence (P08069 31-1367): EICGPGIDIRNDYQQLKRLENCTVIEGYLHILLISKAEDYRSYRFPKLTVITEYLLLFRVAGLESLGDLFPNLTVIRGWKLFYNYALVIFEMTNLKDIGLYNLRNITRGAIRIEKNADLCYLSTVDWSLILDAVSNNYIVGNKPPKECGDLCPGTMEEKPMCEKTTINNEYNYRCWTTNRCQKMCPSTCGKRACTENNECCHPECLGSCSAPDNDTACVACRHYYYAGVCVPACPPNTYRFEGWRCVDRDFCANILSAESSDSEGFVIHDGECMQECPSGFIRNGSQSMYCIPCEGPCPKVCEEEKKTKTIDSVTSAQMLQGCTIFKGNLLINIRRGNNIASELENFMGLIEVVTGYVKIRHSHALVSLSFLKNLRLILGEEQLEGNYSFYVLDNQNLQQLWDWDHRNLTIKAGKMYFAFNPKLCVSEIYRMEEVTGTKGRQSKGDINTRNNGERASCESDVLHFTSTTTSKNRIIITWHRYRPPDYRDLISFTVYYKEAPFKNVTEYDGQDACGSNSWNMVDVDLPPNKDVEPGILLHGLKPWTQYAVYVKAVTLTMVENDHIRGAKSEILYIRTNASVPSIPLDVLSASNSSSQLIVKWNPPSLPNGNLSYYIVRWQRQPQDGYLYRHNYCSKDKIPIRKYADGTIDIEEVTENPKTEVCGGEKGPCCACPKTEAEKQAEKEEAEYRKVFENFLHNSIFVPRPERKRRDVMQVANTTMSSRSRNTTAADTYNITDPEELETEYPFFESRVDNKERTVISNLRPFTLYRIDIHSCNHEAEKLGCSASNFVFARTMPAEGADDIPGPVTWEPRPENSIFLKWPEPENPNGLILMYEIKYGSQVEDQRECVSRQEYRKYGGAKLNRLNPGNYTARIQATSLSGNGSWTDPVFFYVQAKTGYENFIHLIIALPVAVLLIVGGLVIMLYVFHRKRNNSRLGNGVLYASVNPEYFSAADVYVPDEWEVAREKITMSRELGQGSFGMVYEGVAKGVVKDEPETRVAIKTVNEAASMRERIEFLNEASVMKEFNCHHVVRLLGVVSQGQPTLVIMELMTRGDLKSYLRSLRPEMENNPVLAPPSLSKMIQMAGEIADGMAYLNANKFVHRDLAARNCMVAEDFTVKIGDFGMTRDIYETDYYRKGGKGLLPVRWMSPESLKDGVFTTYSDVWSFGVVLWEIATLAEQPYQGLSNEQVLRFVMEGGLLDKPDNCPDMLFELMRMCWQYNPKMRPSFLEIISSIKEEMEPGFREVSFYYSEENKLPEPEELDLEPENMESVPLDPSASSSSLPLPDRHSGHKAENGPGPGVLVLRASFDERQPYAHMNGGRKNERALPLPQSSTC
Experimental: IVa. Cellular IGF-1R and InsR Assays
Compound-mediated inhibition of IGF1R and INSR phosphorylation in Hek293 cells transduced with the corresponding receptors is assessed in a capture ELISA format using the MSD (Meso Scale Discovery) platform. Briefly, 30′000 cells washed and diluted in starvation medium (DMEM high glucose supplemented with 0.1% BSA) are seeded in 90 μL per well into 96-well plates pre-coated with poly-D-lysine (0.1 mg/mL in PBS/O). After 24 h incubation at 37° C. and 5% CO2, dose-response effects are determined with 3-fold serial compound dilutions, starting at 10 μM. The final vehicle concentration is 0.1% DMSO in all wells. Following pre-incubation with compounds for 1 h, receptor phosphorylation is triggered by a 10 min exposure to 1.0 ng/μL IGF for Hek293-IGF1R cells, and 5.0 ng/μL insulin for Hek293-InsR cells. Cell lysis is achieved by addition of 80 μL MSD lysis buffer per aspirated well, incubation on ice for 20 min, and a freeze-thaw cycle. Target phosphorylation is then assessed by transferring volumes corresponding to approx. 6 μg Hek293-IGF1R or 0.6 μg Hek293-InsR lysates to MSD assay plates pre-coated with total-IGF1R or total-InsR Abs, respectively. […] Immune complexes are detected by a SULFO-Tag™-coupled anti-rabbit IgG antibody in the presence of 150 μL MSD read-buffer. Light emission at 620 nm triggered by application of electric current is recorded on a MSD Sectorlmager 6000. Acquired raw data (mean Ru-ECL units) are processed in an Excel analysis template. The plate blank (MSD lysis buffer) is subtracted from all data points. The effect of a particular test compound concentration on receptor phosphorylation is expressed relative to the window defined by ligand-stimulated vs unstimulated control cells (set as 100%). IC50 values [nM] are determined using 4-parametric curve-fitting (XLfit software, V4.3.2).

hERG channels = hERG channels (Homo sapiens, UniProt Q12809); assay: biochemical
InsR = InsR (Homo sapiens, UniProt P06213); assay: Enzymatic kinase assay (filter-binding/flashplate); assay type: biochemical
Experimental: (§1) Two methods were used to analyze phosphorylated peptides and proteins produced by the listed tyrosine and serine/threonine-specific protein kinases: either using a filter-binding assay (FB), or using a flashplate assay (FP). The activities of protein kinases were assayed in the presence or absence of inhibitors, by measuring the incorporation of ^33P from [γ^33P]ATP into appropriate substrates.
(§2) 96-well polypropylene microplates were used to assay the activity in the FB mode. To determine the inhibitory activity of compounds 10 μL of compound dilutions were pipetted into 96-well plates followed by the addition of 10 μL of assay mix and 10 μL of individual enzymes. With the addition of the enzymes the reactions were initiated and continued at RT. […] The final concentration of DMSO in the enzyme assays was 1%.
(§3) Flashplates are available as 96-well standard (STFPs) or as streptavidin-(SAFPs) or nickel coated FPs (NiFPs) from Perkin Elmer. STFPs are 96-well polystyrene microplates in which the interior of each well is permanently coated with a thin layer of polystyrene-based scintillant. Streptavidin flashplates (SAFP) are 96 or 384-well STFPs coated with streptavidin. SAFPs are suitable for a wide variety of assay applications which utilize biotinylated capture molecules. NiFP or nickel chelate flashplates are 96- or 384-well STFPs coated with nickel chelate. NiFPs are designed for in-plate, radiometric assays which utilize 4- or 6-histidine tagged proteins and peptides.
(§4) All kinase assays were performed in STFPs for 60 mins at RT and stopped with 50 μL of 0.5% H3PO4 except PKA which were carried out in polypropylene 96- and 384-well plates, respectively. […] All wells were then washed three times with 200 μL of 0.5% H3PO4 and the plates were dried at room temperature. The plates were sealed and counted in a microplate scintillation counter (TopCount NXT, TopCount NXT HTS). The final concentration of DMSO in the enzyme assays was 1%.

IGF1R [2] = biological target: T1, IGF1R; assay: Enzymatic kinase assay (filter-binding/flashplate); assay type: biochemical
Experimental: as §1, §2, §3, §4

cABLT315 = cABLT315 (Homo sapiens, UniProt P00519, T315I); assay: Enzymatic kinase assay; assay type: biochemical
Experimental: as §1, §2, §3, §4

JAK2 = JAK2 (Homo sapiens, UniProt O60674); assay: Enzymatic kinase assay; assay type: biochemical
Chain of JAK2 (O60674 whole entry, species assumed): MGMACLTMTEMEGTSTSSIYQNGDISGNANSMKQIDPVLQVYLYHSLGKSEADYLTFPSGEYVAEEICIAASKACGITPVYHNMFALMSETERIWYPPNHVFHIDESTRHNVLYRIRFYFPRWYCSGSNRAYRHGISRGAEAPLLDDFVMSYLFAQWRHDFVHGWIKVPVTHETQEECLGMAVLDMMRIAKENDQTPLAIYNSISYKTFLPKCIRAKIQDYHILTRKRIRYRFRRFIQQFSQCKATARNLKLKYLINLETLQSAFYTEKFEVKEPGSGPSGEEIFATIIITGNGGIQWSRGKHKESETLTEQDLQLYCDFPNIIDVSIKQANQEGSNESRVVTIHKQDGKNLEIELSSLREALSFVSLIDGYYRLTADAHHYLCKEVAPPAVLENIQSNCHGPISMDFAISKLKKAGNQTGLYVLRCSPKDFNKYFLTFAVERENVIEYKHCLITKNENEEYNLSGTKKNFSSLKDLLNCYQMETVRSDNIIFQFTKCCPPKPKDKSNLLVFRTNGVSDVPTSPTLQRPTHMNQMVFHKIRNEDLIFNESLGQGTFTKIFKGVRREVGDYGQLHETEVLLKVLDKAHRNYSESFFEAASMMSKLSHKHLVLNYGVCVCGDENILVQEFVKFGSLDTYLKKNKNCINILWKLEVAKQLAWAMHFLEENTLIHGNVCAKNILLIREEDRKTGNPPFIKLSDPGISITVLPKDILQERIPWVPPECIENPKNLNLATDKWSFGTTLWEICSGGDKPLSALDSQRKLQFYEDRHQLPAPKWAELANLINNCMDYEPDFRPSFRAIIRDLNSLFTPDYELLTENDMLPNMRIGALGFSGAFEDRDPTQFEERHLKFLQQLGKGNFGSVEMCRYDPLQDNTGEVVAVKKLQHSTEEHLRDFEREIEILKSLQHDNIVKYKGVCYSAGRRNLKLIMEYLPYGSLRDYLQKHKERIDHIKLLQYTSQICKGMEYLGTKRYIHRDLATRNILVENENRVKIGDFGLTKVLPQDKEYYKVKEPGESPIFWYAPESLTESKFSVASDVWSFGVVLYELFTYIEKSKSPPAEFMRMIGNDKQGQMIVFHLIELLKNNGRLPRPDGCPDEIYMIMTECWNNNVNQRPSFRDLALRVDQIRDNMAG
Experimental: as §1, §2, §3, §4

PDGFRa = PDGFRa (Homo sapiens, UniProt P16234); assay: Enzymatic kinase assay; assay type: biochemical
Experimental: as §1, §2, §3, §4

cKIT = cKIT (Homo sapiens, UniProt P10721); assay: Enzymatic kinase assay; assay type: biochemical
Experimental: as §1, §2, §3, §4

MK2 = MK2 (Homo sapiens, UniProt P49137); assay: Enzymatic kinase assay; assay type: biochemical
Experimental: as §1, §2, §3, §4

GSK3beta = GSK3beta (Homo sapiens, UniProt P49841); assay: Enzymatic kinase assay; assay type: biochemical
Experimental: as §1, §2, §3, §4

RET = RET (Homo sapiens, UniProt P07949); assay: Enzymatic kinase assay; assay type: biochemical; settings: for IC50: enzymatic, read-out: RET IC50 values (converted)
Experimental: as §1, §2, §3, §4

Aurora A = biological target: T2, Aurora A (Homo sapiens, UniProt O14965); assay: Enzymatic kinase assay; assay type: biochemical
T2 sequence (O14965 1-403): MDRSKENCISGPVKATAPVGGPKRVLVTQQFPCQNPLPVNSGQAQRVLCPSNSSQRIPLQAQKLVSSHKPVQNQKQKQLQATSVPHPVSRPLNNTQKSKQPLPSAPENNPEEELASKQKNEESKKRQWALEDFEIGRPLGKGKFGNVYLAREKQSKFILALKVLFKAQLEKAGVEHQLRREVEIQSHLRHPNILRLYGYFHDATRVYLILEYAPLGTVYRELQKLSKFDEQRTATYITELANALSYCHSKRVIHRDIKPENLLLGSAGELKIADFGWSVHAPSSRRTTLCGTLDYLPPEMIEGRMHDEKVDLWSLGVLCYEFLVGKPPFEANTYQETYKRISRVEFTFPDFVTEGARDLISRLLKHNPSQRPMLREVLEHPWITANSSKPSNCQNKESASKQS
Experimental: as §1, §2, §3, §4

FGFR-4 = FGFR-4 (Homo sapiens, UniProt P22455); assay: Enzymatic kinase assay; assay type: biochemical
Chain of FGFR-4 (P22455 22-802, species assumed): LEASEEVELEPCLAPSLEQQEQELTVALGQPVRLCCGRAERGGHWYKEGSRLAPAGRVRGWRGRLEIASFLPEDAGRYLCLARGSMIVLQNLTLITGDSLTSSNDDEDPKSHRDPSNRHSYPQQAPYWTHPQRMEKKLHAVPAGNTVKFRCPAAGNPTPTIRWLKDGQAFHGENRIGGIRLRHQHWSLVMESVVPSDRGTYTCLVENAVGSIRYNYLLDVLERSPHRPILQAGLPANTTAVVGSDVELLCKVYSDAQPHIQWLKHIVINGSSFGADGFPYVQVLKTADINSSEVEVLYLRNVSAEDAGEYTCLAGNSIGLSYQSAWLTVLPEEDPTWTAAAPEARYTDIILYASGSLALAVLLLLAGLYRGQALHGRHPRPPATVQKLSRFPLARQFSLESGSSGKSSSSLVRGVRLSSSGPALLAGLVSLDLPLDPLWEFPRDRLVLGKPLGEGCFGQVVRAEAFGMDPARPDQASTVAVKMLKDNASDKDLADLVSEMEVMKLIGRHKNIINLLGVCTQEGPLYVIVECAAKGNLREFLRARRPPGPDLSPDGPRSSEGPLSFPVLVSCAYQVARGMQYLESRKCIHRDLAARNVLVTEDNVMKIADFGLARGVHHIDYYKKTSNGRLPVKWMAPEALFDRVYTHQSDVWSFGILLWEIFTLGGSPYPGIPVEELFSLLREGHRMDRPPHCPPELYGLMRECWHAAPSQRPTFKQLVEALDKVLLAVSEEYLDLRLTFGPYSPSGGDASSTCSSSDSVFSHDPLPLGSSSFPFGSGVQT
Experimental: as §1, §2, §3, §4

ERK2 = ERK2 (Homo sapiens, UniProt P28482); assay: Enzymatic kinase assay; assay type: biochemical
Experimental: as §1, §2, §3, §4

P38a = P38a (Homo sapiens, UniProt Q16539); assay: Enzymatic kinase assay; assay type: biochemical
Experimental: as §1, §2, §3, §4

CDK2A = CDK2A (Homo sapiens, UniProt P24941); assay: Enzymatic kinase assay; assay type: biochemical
Experimental: as §1, §2, §3, §4

COT1 = COT1 (Homo sapiens, UniProt P41279); assay: Enzymatic kinase assay; assay type: biochemical
Chain of COT1 (P41279 whole entry): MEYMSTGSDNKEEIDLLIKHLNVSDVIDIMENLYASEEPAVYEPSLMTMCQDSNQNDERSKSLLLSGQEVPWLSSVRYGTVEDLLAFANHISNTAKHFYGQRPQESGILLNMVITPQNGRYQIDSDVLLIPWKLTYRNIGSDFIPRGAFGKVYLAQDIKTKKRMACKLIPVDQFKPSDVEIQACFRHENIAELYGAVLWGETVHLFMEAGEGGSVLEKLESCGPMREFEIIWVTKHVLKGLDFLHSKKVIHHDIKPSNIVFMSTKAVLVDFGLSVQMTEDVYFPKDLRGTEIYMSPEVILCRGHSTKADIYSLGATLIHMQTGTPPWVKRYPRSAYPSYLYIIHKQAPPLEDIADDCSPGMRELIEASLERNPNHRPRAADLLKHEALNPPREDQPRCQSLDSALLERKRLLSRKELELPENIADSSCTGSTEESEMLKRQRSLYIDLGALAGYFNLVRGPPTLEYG
Experimental: as §1, §2, §3, §4

HER2 = HER2 (Homo sapiens, UniProt P04626); assay: Enzymatic kinase assay; assay type: biochemical
Chain of HER2 (P04626 23-1255, species assumed): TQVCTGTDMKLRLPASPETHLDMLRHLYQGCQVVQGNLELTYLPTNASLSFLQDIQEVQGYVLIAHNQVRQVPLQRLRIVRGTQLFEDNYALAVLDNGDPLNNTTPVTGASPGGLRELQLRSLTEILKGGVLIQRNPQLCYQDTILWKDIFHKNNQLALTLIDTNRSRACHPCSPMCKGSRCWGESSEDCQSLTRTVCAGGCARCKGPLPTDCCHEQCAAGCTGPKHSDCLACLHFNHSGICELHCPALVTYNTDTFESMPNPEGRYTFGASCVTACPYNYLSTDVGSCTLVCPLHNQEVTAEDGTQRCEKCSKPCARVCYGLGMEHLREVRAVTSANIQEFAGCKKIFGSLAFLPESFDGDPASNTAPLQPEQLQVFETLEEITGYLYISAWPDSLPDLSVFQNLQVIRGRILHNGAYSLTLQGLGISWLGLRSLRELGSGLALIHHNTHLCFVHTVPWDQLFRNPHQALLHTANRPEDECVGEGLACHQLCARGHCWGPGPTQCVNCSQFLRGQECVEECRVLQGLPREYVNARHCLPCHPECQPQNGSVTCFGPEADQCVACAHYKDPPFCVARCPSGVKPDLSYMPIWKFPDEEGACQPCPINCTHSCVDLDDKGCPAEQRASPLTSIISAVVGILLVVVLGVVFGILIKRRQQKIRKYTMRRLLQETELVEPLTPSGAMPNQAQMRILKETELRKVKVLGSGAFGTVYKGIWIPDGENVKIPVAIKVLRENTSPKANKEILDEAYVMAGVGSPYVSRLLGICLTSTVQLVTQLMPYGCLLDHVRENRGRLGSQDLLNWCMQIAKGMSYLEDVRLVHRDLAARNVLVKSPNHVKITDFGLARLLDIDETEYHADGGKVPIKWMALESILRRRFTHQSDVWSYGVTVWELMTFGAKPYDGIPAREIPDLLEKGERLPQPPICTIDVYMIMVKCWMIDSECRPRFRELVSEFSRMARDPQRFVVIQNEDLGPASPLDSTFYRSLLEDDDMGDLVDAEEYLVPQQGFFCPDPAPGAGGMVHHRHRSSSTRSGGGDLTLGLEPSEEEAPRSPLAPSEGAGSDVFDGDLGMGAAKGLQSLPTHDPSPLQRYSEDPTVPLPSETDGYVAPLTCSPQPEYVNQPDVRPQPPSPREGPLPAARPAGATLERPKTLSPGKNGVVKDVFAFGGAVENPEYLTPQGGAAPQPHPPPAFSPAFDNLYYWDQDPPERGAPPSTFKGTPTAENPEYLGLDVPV
Experimental: as §1, §2, §3, §4

LCK = LCK (Homo sapiens, UniProt P06239); assay: Enzymatic kinase assay; assay type: biochemical
Experimental: as §1, §2, §3, §4

EphA4 = EphA4 (Homo sapiens, UniProt P54764); assay: Enzymatic kinase assay; assay type: biochemical
Experimental: as §1, §2, §3, §4

cMET = cMET (Homo sapiens, UniProt P08581); assay: Enzymatic kinase assay; assay type: biochemical
Experimental: as §1, §2, §3, §4

TYK2 = TYK2 (Homo sapiens, UniProt P29597); assay: Enzymatic kinase assay; assay type: biochemical
Experimental: as §1, §2, §3, §4

KDR = KDR (Homo sapiens, UniProt P35968); assay: Enzymatic kinase assay; assay type: biochemical
Experimental: as §1, §2, §3, §4

EphB4 = EphB4 (Homo sapiens, UniProt P54760); assay: Kinase assay of known compound and phenol metabolite X; assay type: biochemical; settings: metabolite comparison table
c-src = c-src (Homo sapiens, UniProt P12931); assay: as above; assay type: biochemical; settings: metabolite comparison table
C-Abl = C-Abl (Homo sapiens, UniProt P00519); assay: as above; assay type: biochemical; settings: metabolite comparison table
[3] = enzymatic, read-out: InsR IC50 values

| pIC50 (InsR; [3]) | pIC50 (IGF1R [2]) | pIC50 (cABLT315) | pIC50 (JAK2) | pIC50 (PDGFRa) | pIC50 (cKIT) | pIC50 (MK2) | pIC50 (GSK3beta) | IC50 (RET) [µM] | pIC50 (Aurora A) | pIC50 (FGFR-4) | pIC50 (ERK2) | pIC50 (P38a) | pIC50 (CDK2A) | pIC50 (COT1) | pIC50 (HER2) | pIC50 (LCK) | pIC50 (EphA4) | pIC50 (cMET) | Structure (SMILES) | pIC50 (hERG channels) | also measured |
| --- | --- | --- | --- | --- | --- | --- | --- | --- | --- | --- | --- | --- | --- | --- | --- | --- | --- | --- | --- | --- | --- |
| 6.60 | 7.89 | < 5.00 | < 5.00 | < 5.00 | < 5.00 | < 5.00 | < 5.00 | > 10 | < 5.00 | < 5.00 | < 5.00 | < 5.00 | < 5.00 | < 5.00 | < 5.00 | < 5.00 | < 5.00 | < 5.00 | Nc1ncnc2c1c(-c1cccc(OC[C@@H]3CCCO3)c1F)cn2C1CC2(CNC(=O)O2)C1 (stereo partly drawn) [Example 4, 2-(4-Amino-5-{2-fluoro-3-[(S)-1-(tetrahydro-furan-2-yl)methoxy]-phenyl}-pyrrolo[2,3-d]pyrimidin-7-yl)-5-oxa-7-aza-spiro[3.4]octan-6-one] | 5.06 | pIC50 (IGF1R [1]): 7.77; pIC50 (TYK2): < 5.00; pIC50 (KDR): 5.35 |
| 7.41 | 8.42 | < 5.00 | < 5.00 | 5.08 | 6.11 | < 5.00 | < 5.00 | 3.4 | < 5.00 | < 5.00 | < 5.00 | < 5.00 | < 5.00 | < 5.00 | < 5.00 | 5.07 | < 5.00 | < 5.00 | Nc1ncnc2c1c(-c1cccc(OC[C@@H]3CCCO3)c1F)cn2[C@H]1C[C@@H](CN2CC[S+]([O-])CC2)C1 [Example 6, 5-{2-Fluoro-3-[(S)-1-(tetrahydro-furan-2-yl)methoxy]-phenyl}-7-[cis-3-(1-oxo-thiomorpholin-4-ylmethyl)-cyclobutyl]-7H-pyrrolo[2,3-d]pyrimidin-4-ylamine] | < 4.52 | pIC50 (IGF1R [1]): 8.00; pIC50 (TYK2): < 5.00; pIC50 (KDR): 5.24 |
| 6.57 | 8.06 | < 5.00 | < 5.00 | < 5.00 | < 5.00 | < 5.00 | < 5.00 | > 10 | < 5.00 | < 5.00 | < 5.00 | < 5.00 | < 5.00 | < 5.00 | < 5.00 | < 5.00 | < 5.00 | < 5.00 | Nc1ncnc2c1c(-c1cc(OC[C@@H]3CCCO3)ccc1F)cn2[C@H]1C[C@@H](N2CCN(C(=O)CO)CC2)C1 [Example 40, 1-{4-[cis-3-(4-Amino-5-{2-fluoro-5-[(S)-1-(tetrahydro-furan-2-yl)methoxy]-phenyl}-pyrrolo[2,3-d]pyrimidin-7-yl)-cyclobutyl]-piperazin-1-yl}-2-hydroxy-ethanone] | < 4.52 | pIC50 (TYK2): < 5.00; pIC50 (KDR): 5.04 |

Further lines, the molecule ahead of its results:

| Structure (SMILES) | pIC50 (InsR; [3]) | pIC50 (IGF1R [2]) | pIC50 (cABLT315) | pIC50 (JAK2) | pIC50 (PDGFRa) | pIC50 (cKIT) | pIC50 (MK2) | pIC50 (GSK3beta) | IC50 (RET) [µM] | pIC50 (Aurora A) | pIC50 (FGFR-4) | pIC50 (ERK2) | pIC50 (P38a) | pIC50 (CDK2A) | pIC50 (COT1) | pIC50 (HER2) | pIC50 (LCK) | pIC50 (EphA4) | pIC50 (cMET) | pIC50 (hERG channels) | also measured |
| --- | --- | --- | --- | --- | --- | --- | --- | --- | --- | --- | --- | --- | --- | --- | --- | --- | --- | --- | --- | --- | --- |
| [2H]C1([2H])C([2H])([2H])C2(COc3cccc(-c4cn([C@H]5C[C@@H](N6CC[S+]([O-])CC6)C5)c5ncnc(N)c45)c3F)OC1([2H])C([2H])([2H])C2([2H])[2H] [Example 18, d9-5-[2-Fluoro-3-(7-oxa-bicyclo[2.2.1]hept-1-ylmethoxy)-phenyl]-7-[cis-3-(1-oxo-thiomorpholin-4-yl)-cyclobutyl]-7H-pyrrolo[2,3-d]pyrimidin-4-ylamine] | 7.37 | 7.82 | < 5.00 | < 5.00 | < 5.00 | < 5.00 | < 5.00 | < 5.00 | > 10 | < 5.00 | < 5.00 | < 5.00 | < 5.00 | < 5.00 | < 5.00 | < 5.00 | < 5.00 | < 5.00 | < 5.00 | < 4.52 | pIC50 (IGF1R [1]): 8.40; pIC50 (TYK2): < 5.00; pIC50 (KDR): < 5.00 |
| Nc1ncnc2c1c(-c1cccc(OCc3ccccc3)c1)cn2[C@H]1C[C@@H](CN2CCC2)C1 [WO02/092599, ex. 102] | – | – | – | – | – | – | – | – | – | – | – | – | – | – | – | – | – | – | – | – | pIC50 (EphB4): < 5.00; pIC50 (InsR; metabolite comparison table, read-out: InsR IC50): 6.64; pIC50 (c-src): < 5.00; pIC50 (C-Abl): < 5.00; pIC50 (RET; metabolite comparison table, read-out: RET IC50): 5.36 |
